Experimental data: ChEMBL document CHEMBL1129205, “Small peptide inhibitors of 47 mediated MAdCAM-1 adhesion to lymphocytes” (Bioorg Med Chem Lett, 1996)

Test system: HuT78
Test: Compound was tested for inhibition of MAdCAM-1/alpha-4 beta-7 mediated cell adhesion to T-cell lymphoma, HUT78 cells
Format: functional, cell-based
Details: Homo sapiens

Molecule | IC50
CC(C)C[C@H](NC(=O)[C@H](CO)NC(=O)[C@@H](NC(=O)[C@H](CC(=O)O)NC(=O)[C@H](CC(C)C)NC(=O)CCCc1ccc2ccc3cccc4ccc1c2c34)[C@@H](C)O)C(N)=O | 5 µM
CC(C)C[C@H](NC(=O)[C@H](CO)NC(=O)[C@@H](NC(=O)[C@H](CC(=O)O)NC(=O)[C@H](CC(C)C)NC(=O)C1c2ccccc2-c2ccccc21)[C@@H](C)O)C(N)=O | 18.6 µM
CC(C)C[C@H](NC(=O)[C@H](CO)NC(=O)[C@@H](NC(=O)[C@H](CC(=O)O)NC(=O)[C@H](CC(C)C)NC(=O)C(c1ccccc1)c1ccccc1)[C@@H](C)O)C(N)=O | 13.4 µM
CC(C)C[C@H](NC(=O)[C@H](CO)NC(=O)[C@@H](NC(=O)[C@H](CC(=O)O)NC(=O)[C@H](CC(C)C)NC(=O)C(C1CCCCC1)C1CCCCC1)[C@@H](C)O)C(N)=O | > 1000 µM
CCCC(CCC)C(=O)N[C@@H](CC(C)C)C(=O)N[C@@H](CC(=O)O)C(=O)N[C@H](C(=O)N[C@@H](CO)C(=O)N[C@@H](CC(C)C)C(N)=O)[C@@H](C)O | > 1000 µM
CC(C)C[C@H](NC(=O)[C@H](CO)NC(=O)[C@@H](NC(=O)[C@H](CC(=O)O)NC(=O)[C@H](CC(C)C)NC(=O)Cc1ccccc1)[C@@H](C)O)C(N)=O | > 1000 µM

Test system: not listed separately
Test: Inhibition of MAdCAM-1/alpha-4 beta7-mediated cell adhesion to T-cell lymphoma, HUT78 cells at 500 uM
Format: functional
Details: not given

Molecule | Inhibition
CC(=O)N[C@@H](CCCN=C(N)N)C(=O)NCC(=O)N[C@@H](CC(C)C)C(=O)N[C@@H](CC(=O)O)C(=O)N[C@H](C(=O)N[C@@H](CO)C(=O)N[C@@H](CC(C)C)C(=O)NCC(N)=O)[C@@H](C)O (stereo in doubt; 4) | 75%
CC(=O)N[C@@H](CCCN=C(N)N)C(=O)NCC(=O)N[C@@H](CC(C)C)C(=O)N[C@@H](CC(=O)O)C(=O)N[C@H](C(=O)N[C@@H](CO)C(=O)N[C@@H](CC(C)C)C(=O)NCC(N)=O)[C@@H](C)O (stereo in doubt; 10) | 36%

Same assay, conditions: HuT78

Molecule | inhibition at 500 µM
CC(C)C[C@H](NC(=O)[C@H](CO)NC(=O)[C@@H](NC(=O)[C@H](CC(=O)O)NC(=O)[C@H](CC(C)C)NC(=O)CCCc1ccc2ccc3cccc4ccc1c2c34)[C@@H](C)O)C(N)=O | 5%
CC(C)C[C@H](NC(=O)[C@H](CO)NC(=O)[C@@H](NC(=O)[C@H](CC(=O)O)NC(=O)[C@H](CC(C)C)NC(=O)C1c2ccccc2-c2ccccc21)[C@@H](C)O)C(N)=O | 18.6%
CC(C)C[C@H](NC(=O)[C@H](CO)NC(=O)[C@@H](NC(=O)[C@H](CC(=O)O)NC(=O)[C@H](CC(C)C)NC(=O)C(c1ccccc1)c1ccccc1)[C@@H](C)O)C(N)=O | 13.4%
CC(=O)N[C@@H](CC(C)C)C(=O)N[C@H](CC(=O)O)C(=O)N[C@H](C(=O)N[C@@H](CO)C(=O)N[C@@H](CC(C)C)C(N)=O)[C@@H](C)O | 0%
Ac-AAASL-NH2 | 0%
Ac-ADTSL-NH2 | 3%
Ac-DTSLGSVQ-NH2 | 0%
Ac-GLDTSLGS-NH2 | 28%
Ac-HWRGLDTS-NH2 | 46%
Ac-HWRGLDTSLGSV-NH2 | 71%
Ac-LATSL-NH2 | 0%
Ac-LDTSLGSV-NH2 | 16%
Ac-LNTSL-NH2 | 0%
Ac-LYTSL-NH2 | 0%
Ac-RVHWAGLD-NH2 | 0%
Ac-RVHWRGLDTSLGSVQ-NH2 | 88%
Ac-VHWRGLDT-NH2 | 48%
Ac-WRGLDTSL-NH2 | 52%
Ac-WRGLDTSLGS-NH2 | 71%
